Results on 4 compounds are retold here after ChEMBL document CHEMBL1152951, “Tabernines A-C, beta-carbolines from the leaves of Tabernaemontana elegans” (J Nat Prod, 2009).

Series [1] has as its target T1, ATP-dependent translocase ABCB1 (Homo sapiens, UniProt P08183). Put plainly: Reversal of human MDR1-mediated multidrug resistance in mouse L5178Y cells expressing MDR1 assessed as mean fluorescence intensity of rhodamine-123 uptake at 2 uM after 10 mins by flow cytometry. The format is cell-based. (In general: A flow cytometer gives signals particle by particle.)

Series [2] addresses T1, ATP-dependent translocase ABCB1. Put plainly: Reversal of human MDR1-mediated multidrug resistance in mouse L5178Y cells expressing MDR1 assessed as mean fluorescence intensity of rhodamine-123 uptake at 20 uM after 10 mins by flow cytometry. The format is cell-based.
Series [3] relates to L5178Y. Put plainly: Antiproliferative activity against multidrug resistant mouse L5178Y cells expressing human MDR1 after 72 hrs by MTT assay. The format is functional. The conditions noted are these: read-out: ID50 (the source's name).
In series [4] the target is T1, ATP-dependent translocase ABCB1. Description: Reversal of human MDR1-mediated multidrug resistance in mouse L5178Y cells expressing MDR1 assessed as fluorescence activity ratio at 2 uM after 10 mins by rhodamine-123 exclusion test. The format is cell-based.
In series [5] the test system is L5178Y. Put plainly: Antiproliferative activity against mouse L5178Y cells after 72 hrs by MTT assay. The format is functional. The conditions noted are these: read-out: ID50 (the source's name).
Series [6] addresses T1, ATP-dependent translocase ABCB1. Description: Reversal of human MDR1-mediated multidrug resistance in mouse L5178Y cells expressing MDR1 assessed as fluorescence activity ratio at 20 uM after 10 mins by rhodamine-123 exclusion test. It is filed as cell-based.
Series [7] shares this target. The following applies: l5178y, 10 min, 22.2 µM.
Description: Reversal of human MDR1-mediated multidrug resistance in mouse L5178Y cells expressing MDR1 assessed as mean fluorescence intensity of rhodamine-123 uptake at 22.2 uM after 10 mins by flow cytometry

T1 sequence (P08183 whole entry): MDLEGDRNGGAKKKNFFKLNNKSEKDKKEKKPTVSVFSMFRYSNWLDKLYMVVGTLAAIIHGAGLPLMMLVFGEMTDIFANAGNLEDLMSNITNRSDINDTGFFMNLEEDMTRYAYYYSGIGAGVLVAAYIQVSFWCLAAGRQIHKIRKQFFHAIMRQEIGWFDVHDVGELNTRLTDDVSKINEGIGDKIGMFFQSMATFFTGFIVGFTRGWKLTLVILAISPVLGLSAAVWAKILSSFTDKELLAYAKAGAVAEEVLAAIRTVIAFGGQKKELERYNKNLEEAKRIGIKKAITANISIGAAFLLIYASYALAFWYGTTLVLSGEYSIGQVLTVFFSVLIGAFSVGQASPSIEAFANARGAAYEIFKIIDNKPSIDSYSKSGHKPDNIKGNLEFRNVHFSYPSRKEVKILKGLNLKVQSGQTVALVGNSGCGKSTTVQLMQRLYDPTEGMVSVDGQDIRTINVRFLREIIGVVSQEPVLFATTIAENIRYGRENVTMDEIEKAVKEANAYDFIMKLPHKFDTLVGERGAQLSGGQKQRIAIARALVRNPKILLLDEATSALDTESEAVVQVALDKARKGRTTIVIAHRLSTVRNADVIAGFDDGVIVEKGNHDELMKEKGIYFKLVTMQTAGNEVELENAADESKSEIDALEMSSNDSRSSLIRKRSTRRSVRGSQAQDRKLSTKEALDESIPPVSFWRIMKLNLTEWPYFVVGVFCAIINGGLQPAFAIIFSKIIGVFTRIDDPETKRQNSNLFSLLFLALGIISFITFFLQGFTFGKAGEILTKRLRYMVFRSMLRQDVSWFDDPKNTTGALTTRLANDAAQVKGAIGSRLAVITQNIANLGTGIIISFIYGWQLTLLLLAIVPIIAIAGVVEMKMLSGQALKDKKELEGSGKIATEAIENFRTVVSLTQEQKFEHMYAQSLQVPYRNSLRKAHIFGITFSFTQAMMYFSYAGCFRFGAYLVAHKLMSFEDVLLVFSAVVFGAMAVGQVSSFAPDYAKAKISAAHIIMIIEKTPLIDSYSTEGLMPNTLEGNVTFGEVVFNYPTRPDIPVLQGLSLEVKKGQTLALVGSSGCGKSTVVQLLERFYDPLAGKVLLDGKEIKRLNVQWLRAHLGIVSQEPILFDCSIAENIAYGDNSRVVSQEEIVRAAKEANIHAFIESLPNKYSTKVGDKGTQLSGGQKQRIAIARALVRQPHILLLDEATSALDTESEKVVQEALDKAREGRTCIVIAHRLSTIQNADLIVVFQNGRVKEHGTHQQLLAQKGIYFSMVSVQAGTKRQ

For `Cc1cc2c([n-]c3ccccc32)c2[n+]1C(C)NCC2` (centres undefined) [TABERNINE A], the Flu intensity in series [1] amounted to 7.7; in series [2], 18.5. In addition, the IC50 with L5178Y [3] was 37.5 µM; in the series with L5178Y [5] it was 45.9 µM. Besides, the Ratio in series [4] amounted to 0.72; in series [6] it was 1.73.

In the case of `Cc1cc2c3ccccc3n3c2c(n1)CCNC3C` (centres undefined) [TEBERNINE B], the Activity is reported as 8.9 in series [1] and 10.7 in series [2]. Further, the IC50 in the series with L5178Y [3] turned out to be 39.7 µM; in the series on L5178Y [5], 46.6 µM. Further, the Ratio in series [4] is 0.78; in series [6] it was 0.99.

For the compound `Cc1cc2c([nH]c3ccccc32)c(CCN)n1` [TEBERNINE C], the Activity in series [1] amounted to 8.4; in series [2], 15.3. Moreover, the results for the IC50 with L5178Y [3] and in the series with L5178Y [5] were 51.5 µM and 70.6 µM, respectively. For the same compound, the Ratio was 0.79 in series [4] and 1.43 in series [6].

As to `COc1ccc(CCN(C)CCCC(C#N)(c2ccc(OC)c(OC)c2)C(C)C)cc1OC` (centres undefined) [VERAPAMIL], the Flu intensity in series [7] came to 98.9.
